Among the data in patent US20250312352A1, “GLP-1R MODULATING COMPOUNDS” (Gilead Sciences, Inc., priority 2021, published 2025) are EC50 values, retold here.

The target in this experiment is T1, GLP-1R (Homo sapiens, UniProt P43220).
T1 construct: host or cells: CHO cells
T1 sequence (P43220 24-463): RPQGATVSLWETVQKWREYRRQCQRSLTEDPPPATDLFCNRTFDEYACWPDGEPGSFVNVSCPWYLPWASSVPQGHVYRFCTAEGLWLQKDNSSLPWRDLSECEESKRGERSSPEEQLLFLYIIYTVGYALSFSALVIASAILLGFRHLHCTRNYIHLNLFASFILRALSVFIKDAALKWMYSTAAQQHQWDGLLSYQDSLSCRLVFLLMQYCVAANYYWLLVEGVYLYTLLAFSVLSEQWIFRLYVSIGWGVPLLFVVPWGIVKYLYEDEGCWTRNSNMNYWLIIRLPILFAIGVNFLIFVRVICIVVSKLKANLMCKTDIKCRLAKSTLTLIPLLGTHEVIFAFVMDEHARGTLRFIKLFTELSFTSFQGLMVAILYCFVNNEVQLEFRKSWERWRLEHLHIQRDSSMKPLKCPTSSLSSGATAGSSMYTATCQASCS
The experiment can be described thus: GLP-1R activation cAMP assay (Assay 1 or Assay 2). The experiment is classed as cell-based. The settings on record: cAMP increase in CHO cells stably expressing GLP-1R; compounds run on one of the two cAMP assays. A digest of the protocol:
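EC50 values come from a sigmoidal fit of HTRF-detected cAMP rise versus log agonist concentration. GLP-1R-expressing CHO cells, equilibrated 1 h at 37 °C in HBSS with HEPES and BSA, received a 10-point compound dose series for 30 min before detection.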
In general, EC50 refers to the concentration needed to bring the measured effect to its halfway point. Low values mean an effect from little substance, high ones a need for much substance. `Cn1cc(CNC(=O)c2cc(Cl)c(COc3cccc(-c4cc(F)c(Cc5nc6ccc(C(=O)O)cc6n5C[C@@H]5CCO5)cc4F)n3)cn2)cn1` [Example 193, (S)-2-(4-(6-((4-chloro-6-(((1-methyl-1H-pyrazol-4-yl)methyl)carbamoyl)pyridin-3-yl)methoxy)pyridin-2-yl)-2,5-difluorobenzyl)-1-(oxetan-2-ylmethyl)-1H-benzo[d]imidazole-6-carboxylic acid] registered an EC50 of 0.22 nM. The value for “(S)-2-(4-(6-((5-cyano-3-fluorothiophen-2-yl)methoxy)-5-fluoropyridin-2-yl)-2,5-difluorobenzyl)-4-fluoro-1-(oxetan-2-ylmethyl)-1H-benzo[d]imidazole-6-carboxylic acid [Example 310]” was 0.038 nM; that for `N#Cc1cnc(COc2cccc(-c3cc(F)c(Cc4nc5c(F)cc(C(=O)O)cc5n4C[C@@H]4CCO4)cc3F)n2)s1` [Example 372, 2-[[4-[6-[(5-cyanothiazol-2-yl)methoxy]-2-pyridyl]-2,5-difluoro-phenyl]methyl]-7-fluoro-3-[[(2S)-oxetan-2-yl]methyl]benzimidazole-5-carboxylic acid] was 0.024 nM; that for `N#Cc1ccc2nc(COc3cccc(-c4cc(F)c(Cc5nc6ccc(C(=O)O)cc6n5C[C@@H]5CCO5)cc4F)n3)cn2c1` [Example 31, (S)-2-(4-(6-((6-cyanoimidazo[1,2-a]pyridin-2-yl)methoxy)pyridin-2-yl)-2,5-difluorobenzyl)-1-(oxetan-2-ylmethyl)-1H-benzo[d]imidazole-6-carboxylic acid] was 1.32 nM. In the case of `CC(F)(F)c1cnc(COc2nc(-c3cc(F)c(Cc4nc5c(F)cc(C(=O)O)cc5n4C[C@@H]4CCO4)c(F)c3F)ccc2F)s1` [Example 378, (S)-2-(4-(6-((5-(1,1-difluoroethyl)thiazol-2-yl)methoxy)-5-fluoropyridin-2-yl)-2,3,6-trifluorobenzyl)-4-fluoro-1-(oxetan-2-ylmethyl)-1H-benzo[d]imidazole-6-carboxylic acid], the response was half-maximal at 0.068 nM (EC50).

Turning to `COc1nnc(COc2cccc(-c3cc(F)c(Cc4nc5ccc(C(=O)O)cc5n4CC4(CF)CC4)cc3F)n2)s1` [Example 272, 2-(2,5-difluoro-4-(6-((5-methoxy-1,3,4-thiadiazol-2-yl)methoxy)pyridin-2-yl)benzyl)-1-((1-(fluoromethyl)cyclopropyl)methyl)-1H-benzo[d]imidazole-6-carboxylic acid], the EC50 came to 1.9 nM. In the case of `N#Cc1cc(COc2cccc(-c3cc(F)c(Cc4nc5ccc(C(=O)O)cc5n4C[C@@H]4CCO4)cc3F)n2)cs1` [Example 128, (S)-2-(4-(6-((5-cyanothiophen-3-yl)methoxy)pyridin-2-yl)-2,5-difluorobenzyl)-1-(oxetan-2-ylmethyl)-1H-benzo[d]imidazole-6-carboxylic acid], it took 1.95 nM to reach a half-maximal effect (EC50). Turning to `Cn1cc(C#Cc2cnc(COc3cccc(-c4cc(F)c(Cc5nc6c(F)cc(C(=O)O)cc6n5C[C@@H]5CCO5)cc4F)n3)s2)cn1` [Example 111, 2-[[2,5-difluoro-4-[6-[[5-[2-(1-methylpyrazol-4-yl)ethynyl]thiazol-2-yl]methoxy]-2-pyridyl]phenyl]methyl]-7-fluoro-3-[[(2S)-oxetan-2-yl]methyl]benzimidazole-5-carboxylic acid], the EC50 was determined as 0.05 nM. Under `CC(F)(F)c1cnc(COc2cccc(-c3cc(F)c(Cc4nc5ccc(C(=O)O)cc5n4[C@@H]4COCC4(C)C)cc3F)n2)s1` [Example 425, (S)-2-(4-(6-((5-(1,1-difluoroethyl)thiazol-2-yl)methoxy)pyridin-2-yl)-2,5-difluorobenzyl)-1-(4,4-dimethyltetrahydrofuran-3-yl)-1H-benzo[d]imidazole-6-carboxylic acid] stands 0.535 nM. Take `O=C(O)c1ccc2nc(Cc3cc(F)c(-c4cccc(OCc5ncc(C#Cc6ccc(F)cc6)cc5F)n4)cc3F)n(C[C@@H]3CCO3)c2c1` [Example 284, (S)-2-(2,5-difluoro-4-(6-((3-fluoro-5-((4-fluorophenyl)ethynyl)pyridin-2-yl)methoxy)pyridin-2-yl)benzyl)-1-(oxetan-2-ylmethyl)-1H-benzo[d]imidazole-6-carboxylic acid]: the EC50 stood at 0.183 nM.

`O=C(O)c1ccc2nc(Cc3cc(F)c(-c4cccc(OCc5nc6cc(Cl)ccc6s5)n4)cc3F)n(C[C@@H]3CCO3)c2c1` [Example 35, (S)-2-(4-(6-((5-chlorobenzo[d]thiazol-2-yl)methoxy)pyridin-2-yl)-2,5-difluorobenzyl)-1-(oxetan-2-ylmethyl)-1H-benzo[d]imidazole-6-carboxylic acid] registered an EC50 of 0.22 nM.

Consider `Cn1cc(-c2ncc(COc3cccc(-c4cc(F)c(Cc5nc6ccc(C(=O)O)cc6n5C[C@@H]5CCO5)cc4F)n3)s2)cn1` [Example 355, (S)-2-(2,5-difluoro-4-(6-((2-(1-methyl-1H-pyrazol-4-yl)thiazol-5-yl)methoxy)pyridin-2-yl)benzyl)-1-(oxetan-2-ylmethyl)-1H-benzo[d]imidazole-6-carboxylic acid], for which it took 0.355 nM to reach a half-maximal effect (EC50). `O=C(O)c1ccc2nc(Cc3cc(F)c(-c4cccc(OCc5ccn(C(F)F)n5)n4)cc3F)n(C[C@@H]3CCO3)c2c1` [Example 9, (S)-2-(4-(6-((1-(difluoromethyl)-1H-pyrazol-3-yl)methoxy)pyridin-2-yl)-2,5-difluorobenzyl)-1-(oxetan-2-ylmethyl)-1H-benzo[d]imidazole-6-carboxylic acid] came in with an EC50 of 0.95 nM. Molecule `O=C(O)c1cc(F)c2nc(Cc3cc(F)c(-c4ccnc(OCc5ncc(C(F)(F)F)s5)n4)cc3F)n(C[C@@H]3CCO3)c2c1` [Example 408, (S)-2-(2,5-difluoro-4-(2-((5-(trifluoromethyl)thiazol-2-yl)methoxy)pyrimidin-4-yl)benzyl)-4-fluoro-1-(oxetan-2-ylmethyl)-1H-benzo[d]imidazole-6-carboxylic acid] registered an EC50 of 0.381 nM.

`O=C(O)c1ccc2nc(Cc3cc(F)c(-c4cccc(OCc5ccc(-c6cn(C7CCOCC7)nn6)cc5F)n4)cc3F)n(C[C@@H]3CCO3)c2c1` [Example 218, (S)-2-(2,5-difluoro-4-(6-((2-fluoro-4-(1-(tetrahydro-2H-pyran-4-yl)-1H-1,2,3-triazol-4-yl)benzyl)oxy)pyridin-2-yl)benzyl)-1-(oxetan-2-ylmethyl)-1H-benzo[d]imidazole-6-carboxylic acid] displayed an EC50 of 0.8 nM. Regarding `NC(=O)c1ccc(COc2nccc(-c3cc(F)c(Cc4nc5ccc(C(=O)O)cc5n4C[C@@H]4CCO4)cc3F)n2)c(F)c1` [Example 203, (S)-2-(4-(2-((4-carbamoyl-2-fluorobenzyl)oxy)pyrimidin-4-yl)-2,5-difluorobenzyl)-1-(oxetan-2-ylmethyl)-1H-benzo[d]imidazole-6-carboxylic acid], a half-maximal effect (EC50) was put at 1.1 nM. The value for `O=C(O)c1cc(F)c2nc(Cc3cc(F)c(-c4cccc(OCc5ccc(C#Cc6cnc(N7CC8CCC(C7)N8C7COC7)nc6)cc5F)n4)cc3F)n(C[C@@H]3CCO3)c2c1` [Example 152, 2-(2,5-difluoro-4-(6-((2-fluoro-4-((2-(8-(oxetan-3-yl)-3,8-diazabicyclo[3.2.1]octan-3-yl)pyrimidin-5-yl)ethynyl)benzyl)oxy)pyridin-2-yl)benzyl)-4-fluoro-1-(((S)-oxetan-2-yl)methyl)-1H-benzo[d]imidazole-6-carboxylic acid] was 0.68 nM. Under `Cc1ncc(COc2cccc(-c3cc(F)c(Cc4nc5ccc(C(=O)O)cc5n4C[C@@H]4CCO4)cc3F)n2)n1C` [Example 179, (S)-2-(4-(6-((1,2-dimethyl-1H-imidazol-5-yl)methoxy)pyridin-2-yl)-2,5-difluorobenzyl)-1-(oxetan-2-ylmethyl)-1H-benzo[d]imidazole-6-carboxylic acid] stands 4.59 nM; under `CC1(C)COC[C@H]1n1c(Cc2cc(F)c(-c3cccc(OCc4nnc(C(F)F)s4)n3)cc2F)nc2ccc(C(=O)O)cc21` [Example 432, (S)-2-(4-(6-((5-(difluoromethyl)-1,3,4-thiadiazol-2-yl)methoxy)pyridin-2-yl)-2,5-difluorobenzyl)-1-(4,4-dimethyltetrahydrofuran-3-yl)-1H-benzo[d]imidazole-6-carboxylic acid], 0.093 nM.

`O=C(O)c1ccc2nc(Cc3cc(F)c(-c4cccc(OCc5nnc(OC6CC(C(F)F)C6)s5)n4)cc3F)n(C[C@@H]3CCO3)c2c1` (stereo partly drawn) [Example 347, (S)-2-(4-(6-((5-(3-(difluoromethyl)cyclobutoxy)-1,3,4-thiadiazol-2-yl)methoxy)pyridin-2-yl)-2,5-difluorobenzyl)-1-(oxetan-2-ylmethyl)-1H-benzo[d]imidazole-6-carboxylic acid] showed an EC50 of 0.271 nM. The value for `COc1nnc(COc2cccc(-c3cc(Cl)c(Cc4nc5ccc(C(=O)O)cc5n4[C@@H]4COCC4(C)C)cc3F)n2)s1` [Example 434, (S)-2-(2-chloro-5-fluoro-4-(6-((5-methoxy-1,3,4-thiadiazol-2-yl)methoxy)pyridin-2-yl)benzyl)-1-(4,4-dimethyltetrahydrofuran-3-yl)-1H-benzo[d]imidazole-6-carboxylic acid] was 0.087 nM; that for `Cc1cnc(COc2cccc(-c3cc(F)c(Cc4nc5ccc(C(=O)O)cc5n4C[C@@H]4CCO4)cc3F)n2)s1` [Example 327, (S)-2-(2,5-difluoro-4-(6-((5-methylthiazol-2-yl)methoxy)pyridin-2-yl)benzyl)-1-(oxetan-2-ylmethyl)-1H-benzo[d]imidazole-6-carboxylic acid] was 0.381 nM. As to `O=C(O)c1ccc2nc(Cc3cc(F)c(-c4cccc(OCc5cn6cc(Cl)ccc6n5)n4)cc3F)n(C[C@@H]3CCO3)c2c1` [Example 32, (S)-2-(4-(6-((6-chloroimidazo[1,2-a]pyridin-2-yl)methoxy)pyridin-2-yl)-2,5-difluorobenzyl)-1-(oxetan-2-ylmethyl)-1H-benzo[d]imidazole-6-carboxylic acid], it took 0.79 nM to reach a half-maximal effect (EC50).
